In ChEMBL document CHEMBL4330173, “TRPV1 Modulators for the Treatment of Pain and Inflammation” (ACS Med Chem Lett, 2019):

How the values were obtained:
[1] = target: T1, Transient receptor potential cation channel subfamily V member 1 (Rattus norvegicus, UniProt O35433); assay: Agonist activity at rat TRPV1 expressed in human SH-SY5Y cells assessed as intracellular calcium accumulation by Fluo-4 NW dye based fluorescence assay; format: cell-based
[2] = target: T1, Transient receptor potential cation channel subfamily V member 1; assay: Antagonist activity at rat TRPV1 expressed in human SH-SY5Y cells assessed as reduction in capsaicin-induced intracellular calcium accumulation preincubated with cells followed by capsaicin addition by Fluo-4 NW dye based fluorescence assay; format: cell-based

T1 sequence (O35433 whole entry): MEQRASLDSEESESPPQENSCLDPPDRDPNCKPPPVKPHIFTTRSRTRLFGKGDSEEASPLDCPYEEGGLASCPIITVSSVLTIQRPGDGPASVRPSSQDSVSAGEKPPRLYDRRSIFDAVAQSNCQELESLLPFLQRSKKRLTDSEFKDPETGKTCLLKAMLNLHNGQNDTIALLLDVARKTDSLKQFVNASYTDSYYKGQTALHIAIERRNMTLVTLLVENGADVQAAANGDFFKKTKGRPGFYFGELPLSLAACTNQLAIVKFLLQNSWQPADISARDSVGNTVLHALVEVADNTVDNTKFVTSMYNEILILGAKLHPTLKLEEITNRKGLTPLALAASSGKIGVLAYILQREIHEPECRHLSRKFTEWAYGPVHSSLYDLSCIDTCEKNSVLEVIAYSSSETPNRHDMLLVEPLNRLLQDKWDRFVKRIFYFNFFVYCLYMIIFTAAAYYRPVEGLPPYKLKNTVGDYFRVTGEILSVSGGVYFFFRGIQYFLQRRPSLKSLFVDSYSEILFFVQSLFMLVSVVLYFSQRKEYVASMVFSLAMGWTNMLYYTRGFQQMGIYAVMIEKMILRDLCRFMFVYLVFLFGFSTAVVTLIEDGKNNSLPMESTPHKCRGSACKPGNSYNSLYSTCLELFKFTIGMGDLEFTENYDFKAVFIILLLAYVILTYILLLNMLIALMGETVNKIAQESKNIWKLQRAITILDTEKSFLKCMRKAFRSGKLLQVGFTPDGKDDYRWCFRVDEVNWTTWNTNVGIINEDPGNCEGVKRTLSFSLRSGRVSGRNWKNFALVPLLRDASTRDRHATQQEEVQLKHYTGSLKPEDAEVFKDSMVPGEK

CC(C)=CCC/C(C)=C/CC/C(C)=C/CC/C=C(\C)CC/C=C(\C)CCC(=O)OCC(=O)NCc1ccc(O)c(O)c1
EC50 [1]: 15 nM

COc1cc(CNC(=O)COC(=O)/C=C(\C)CCC=C(C)C)c(I)cc1O
IC50 [2]: 320 nM
